Reference: the NIST ThermoML archive (doi:10.1021/je800348s)
± gives the expanded uncertainty stated by the source.

Experiment: xn = mol fraction of the nth substance listed
Conditions: 101 kPa, Liquid; for mass density: Vibrating tube method

C1C[C@@H]2[C@H]3CC[C@H](C3)[C@@H]2C1 [exo-tetrahydrodicyclopentadiene] + CCCCCCCC
Conditions | mass density, 293.15 K [kg/m3] | mass density, 298.15 K [kg/m3] | mass density, 303.15 K [kg/m3] | mass density, 313.15 K [kg/m3] | viscosity, 293.15 K [mPa·s] | viscosity, 298.15 K [mPa·s] | viscosity, 303.15 K [mPa·s] | viscosity, 313.15 K [mPa·s]
x2 = 0 | 935.2 ± 8 | 931.4 ± 8 | 927.7 ± 8 | 922.2 ± 8 | 3.064 ± 0.077 | 2.74 ± 0.069 | 2.514 ± 0.063 | 2.27 ± 0.057
x2 = 0.117 | 906.1 ± 8 | 901 ± 8 | 898.5 ± 8 | 893.5 ± 8 | 2.353 ± 0.06 | 2.109 ± 0.053 | 1.945 ± 0.049 | 1.769 ± 0.045
x2 = 0.2275 | 879.1 ± 8 | 874.5 ± 8 | 871.8 ± 8 | 866.6 ± 8 | 1.836 ± 0.047 | 1.665 ± 0.042 | 1.553 ± 0.039 | 1.421 ± 0.036
x2 = 0.3384 | 852.4 ± 8 | 848.1 ± 8 | 845.4 ± 8 | 839.8 ± 8 | 1.47 ± 0.037 | 1.351 ± 0.034 | 1.272 ± 0.032 | 1.166 ± 0.03
x2 = 0.4431 | 827.7 ± 8 | 823.6 ± 8 | 820.7 ± 8 | 814.9 ± 8 | 1.216 ± 0.031 | 1.12 ± 0.029 | 1.056 ± 0.027 | 0.9677 ± 0.025
x2 = 0.5439 | 804.2 ± 8 | 800.3 ± 8 | 797.2 ± 8 | 791 ± 8 | 1.027 ± 0.027 | 0.9508 ± 0.025 | 0.8917 ± 0.023 | 0.8212 ± 0.022
x2 = 0.6417 | 781.8 ± 8 | 778 ± 8 | 774.8 ± 8 | 768.3 ± 8 | 0.8793 ± 0.023 | 0.8194 ± 0.022 | 0.7691 ± 0.02 | 0.7085 ± 0.019
x2 = 0.7361 | 760.4 ± 8 | 756.6 ± 8 | 753.2 ± 8 | 746.4 ± 8 | 0.7663 ± 0.02 | 0.7198 ± 0.019 | 0.6752 ± 0.018 | 0.6197 ± 0.017
x2 = 0.8265 | 740.3 ± 8 | 736.5 ± 8 | 732.9 ± 8 | 725.6 ± 8 | 0.6722 ± 0.018 | 0.6345 ± 0.017 | 0.5929 ± 0.016 | 0.5424 ± 0.015
x2 = 0.9143 | 721.1 ± 8 | 717.1 ± 8 | 713.3 ± 8 | 705.6 ± 8 | 0.5988 ± 0.016 | 0.5681 ± 0.016 | 0.5302 ± 0.015 | 0.4839 ± 0.014

C1C[C@@H]2[C@H]3CC[C@H](C3)[C@@H]2C1 [exo-tetrahydrodicyclopentadiene] + CCCCCCCCCC
Conditions | mass density, 293.15 K [kg/m3] | mass density, 298.15 K [kg/m3] | mass density, 303.15 K [kg/m3] | mass density, 313.15 K [kg/m3] | viscosity, 293.15 K [mPa·s] | viscosity, 298.15 K [mPa·s] | viscosity, 303.15 K [mPa·s] | viscosity, 313.15 K [mPa·s]
x2 = 0 | 935.2 ± 8 | 931.4 ± 8 | 927.7 ± 8 | 922.2 ± 8 | 3.064 ± 0.077 | 2.74 ± 0.069 | 2.514 ± 0.063 | 2.27 ± 0.057
x2 = 0.095 | 912.7 ± 8 | 907.5 ± 8 | 905.4 ± 8 | 900.2 ± 8 | 2.631 ± 0.066 | 2.339 ± 0.059 | 2.191 ± 0.055 | 2.006 ± 0.051
x2 = 0.1934 | 890 ± 8 | 885.1 ± 8 | 882.8 ± 8 | 877.8 ± 8 | 2.26 ± 0.057 | 1.996 ± 0.05 | 1.889 ± 0.047 | 1.741 ± 0.044
x2 = 0.2908 | 868.3 ± 8 | 863.7 ± 8 | 861.2 ± 8 | 856.3 ± 8 | 1.964 ± 0.05 | 1.728 ± 0.044 | 1.638 ± 0.041 | 1.53 ± 0.039
x2 = 0.3902 | 846.8 ± 8 | 842.5 ± 8 | 839.8 ± 8 | 834.8 ± 8 | 1.717 ± 0.043 | 1.521 ± 0.038 | 1.441 ± 0.036 | 1.334 ± 0.034
x2 = 0.4893 | 826 ± 8 | 822 ± 8 | 819 ± 8 | 814 ± 8 | 1.525 ± 0.039 | 1.362 ± 0.034 | 1.287 ± 0.032 | 1.214 ± 0.031
x2 = 0.6147 | 800.7 ± 8 | 796.9 ± 8 | 793.7 ± 8 | 788.4 ± 8 | 1.348 ± 0.034 | 1.194 ± 0.03 | 1.143 ± 0.029 | 1.101 ± 0.028
x2 = 0.6905 | 786 ± 8 | 782.3 ± 8 | 779 ± 8 | 773.3 ± 8 | 1.245 ± 0.032 | 1.102 ± 0.028 | 1.058 ± 0.027 | 1.032 ± 0.026
x2 = 0.7895 | 767.4 ± 8 | 763.7 ± 8 | 760.3 ± 8 | 754.2 ± 8 | 1.13 ± 0.029 | 1.009 ± 0.026 | 0.9726 ± 0.025 | 0.9345 ± 0.024
x2 = 0.8952 | 748.2 ± 8 | 744.6 ± 8 | 740.9 ± 8 | 734.3 ± 8 | 1.032 ± 0.026 | 0.9181 ± 0.024 | 0.8852 ± 0.023 | 0.8537 ± 0.022
